No end group written: not given here.
Columns and labels:
[1] = test system: C2C12 cells; assay: Western blot of differentiation markers and myofibrillar proteins; format: cell-based
Description: To induce C2C12 myotube differentiation, myoblasts were seeded in 6-well plates at 5 × 10^5 cells per well. Once reaching 90% confluency, they were cultured in DMEM supplemented with 2% horse serum (Thermo Fisher Scientific) and 1% penicillin-streptomycin. […] Differentiation was observed using an optical microscope (LEICA, 100×). Myotube morphology (length and diameter) was quantified in ImageJ (NIH) using the same images: myotube length was measured by tracing the long axis of each myotube (end-to-end), and myotube diameter was measured as the short-axis width at three positions along each myotube; the mean of the three width values was recorded as the diameter. For each experimental group, three randomly captured images (fields) were analyzed, and at least 15–20 myotubes per image were quantified under identical imaging settings.
Treated C2C12 cells (5 × 10^5 cells/well) were harvested in lysis buffer (Sigma-Aldrich, 2910) and centrifuged at 12,000 g for 10 min; proteins in the supernatant were collected. Protein concentrations were measured using the BCA Protein Assay Kit (Thermo Fisher Scientific). Each 20 μg sample was separated using 10% SDS–PAGE and transferred onto a polyvinylidene fluoride membrane (Millipore, Burlington, MA, USA). Non-specific binding was blocked with 5% non-fat dry milk for 1 h. The membranes were incubated overnight with primary antibodies: Anti-Myf5 (Abcam, ab125078), Anti-Myf6 (Abcam, ab182842), Anti-MyoD (Santa Cruz, sc-377460), Anti-MyoG (Santa Cruz, sc-52903), Anti-α-actinin (Santa Cruz, sc-17829), Anti-MYH3 (Santa Cruz, sc-53091), Anti-p-mTOR (Ser2448) (CST, #5536), Anti-p-Akt (Ser473) (CST, #9271), Anti-p-p70 S6 Kinase (Thr389) (CST, #9205), Anti-myostatin (Abcam, ab124721), Anti-atrogin-1/MAFbx (Santa Cruz, sc-166806), and Anti-MuRF1 (Santa Cruz, sc-398608). Membranes were then incubated for 1 h with HRP-conjugated secondary antibodies. Blot images were captured with the ECL system (Amersham, UK) and quantified using ImageJ.

[2] = test system: SAMP8 mice; assay: H&E myofiber area in muscle; format: in vivo, mouse; conditions: oral gavage once daily 45 weeks, 20 mg Myoki in 200 µL PBS, n = 5, vs SAMP8 group
Description: (§1) Eight week old male senescence-accelerated mouse-prone 8 (SAMP8)/Ta Slc and senescence-accelerated mouse-resistant 1 (SAMR1)/Ta Slc mice (weighing 30 ± 2 g) were purchased from Central Lab Animal Inc. (Seoul, Korea) and housed at 24 °C in cages under a 12/12 h light/dark cycle with ad libitum access to food and water. […] Mice in all groups were dosed once daily by oral gavage for 45 weeks. […] This study was approved by the Institutional Animal Care and Use Committee (approval number CG-R22-001).
Quadriceps (Quad) and gastrocnemius (Gas) muscle tissues were harvested and immersion-fixed in 10% neutral buffered formalin at 4 °C for 24 h. Following fixation, the tissues were dehydrated through a graded series of ethanol, cleared in xylene, and embedded in paraffin. Paraffin-embedded tissues were sectioned at a thickness of 5 μm. The tissue sections mounted on slides were deparaffinized, washed, and stained with hematoxylin (Dako, S3309) and eosin (Thermo Fisher Scientific, #6766007) (H&E). To assess the degree of muscle fibrosis, they were also stained using a Sirius Red Stain Kit (Abcam, ab150681) according to the manufacturer’s instructions. […] For each animal, three images were randomly selected from the stained sections, and the total stained area per image, rather than individual muscle fibers, was quantified using ImageJ software.

[3] = test system: SAMP8 mice; assay: Immunofluorescence in skeletal muscle tissues; format: in vivo, mouse; conditions: oral gavage 45 weeks, 20 mg in 200 µL PBS
Description: as §1
Muscle tissues fixed in formalin were sectioned into 5-μm paraffin section. They were treated with heat-mediated antigen retrieval in TRS buffer TRS buffer (pH 6.2) and peroxide-blocked using reagent (Epredia, TA-125-PBQ). Primary antibodies—anti-myostatin (Abcam, ab124721), anti-atrogin-1/MAFbx (Santa Cruz, sc-166806), and anti-fast MyHC (Abcam, ab91506)—were diluted 1:250 or 1:500 in anti-body diluent (GBI Labs, E09-300) and incubated overnight at 4 °C. […] Nuclei were stained with 4′,6-diamidino-2-phenylindole (DAPI; blue) for 20 min, mounted using Aqua Mounting Media (Biomeda), and imaged at 200× with a confocal fluorescence microscope (LEICA, Wetzlar, Germany). Fluorescence intensities were quantified using ImageJ software, and results were statistically analyzed.

[4] = test system: C2C12 cells; assay: Preliminary screening of candidate peptides; format: cell-based
Description: Supplementary Figure 1. […] Western blot images from the screening experiment are shown, and the summary table indicates peptides that met each criterion (O, yes; X, no; –, not determined).

EAEYEHL-OH [Myoki]
MYH3 protein expression ([1]; Day 3, Western blot, vs DM): significant increase | MyoD protein expression ([1]; Day 3, Western blot, vs DM): significant increase | MyoG protein expression ([1]; Day 3, Western blot, vs DM): significant increase | alpha-actinin protein expression ([1]; Day 3, Western blot, vs DM): significant increase | increase in MYH3 expression ([1]; Day 6, 100 μM, Western blot): 307% | increase in alpha-actinin expression ([1]; Day 6, 100 μM, Western blot): 818% | myofiber area, gastrocnemius [2]: significantly increased | myofiber area, quadriceps [2]: significantly increased | fast-MyHC fluorescence intensity ([3]; n = 5): restored toward SAMR1 levels | atrogin-1/MAFbx fluorescence intensity, gastrocnemius ([3]; n = 5, vs SAMP8 group): significantly decreased | myotube differentiation (screening) [4]: promoted myotube differentiation | DEX-induced activation of muscle protein degradation signaling, particularly atrogin-1/MAFbx upregulation (screening) ([4]; DEX): attenuated
